Assay results from ChEMBL document CHEMBL1201862, “PubChem BioAssay data set” (2004).
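How tested: cells in 96-well plates exposed to compound for 48 hours at five concentrations. GI50 is the concentration that inhibits growth by half.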 The source made the active and inactive calls. Cut-off read from the data, not from the text of the source: active = GI50 up to about 1.1 µM and inactive = higher.

Legend:
Assay in all cases: NCI tumour cell line growth inhibition, 48 h
SF-268 = test system: SF-268
NCI-H23 = test system: NCI-H23
HCC 2998 = test system: HCC 2998
A498 = test system: A498
COLO 205 = test system: COLO 205
SK-OV-3 = test system: SK-OV-3
Hs-578T = test system: Hs-578T
MDA-N = test system: MDA-N
SK-MEL-28 = test system: SK-MEL-28
MOLT-4 = test system: MOLT-4
786-0 = test system: 786-0
CAKI-1 = test system: CAKI-1
HOP-62 = test system: HOP-62
CCRF-CEM = test system: CCRF-CEM
NCI-H226 = test system: NCI-H226
SNB-19 = test system: SNB-19
M14 = test system: M14
A549 = test system: A549
PC-3 = test system: PC-3
SW-620 = test system: SW-620
U-251 = test system: U-251
SF-295 = test system: SF-295
NCI/ADR-RES = test system: NCI/ADR-RES
DU-145 = test system: DU-145
LOX IMVI = test system: LOX IMVI
HCT-15 = test system: HCT-15
SF-539 = test system: SF-539
EKVX = test system: EKVX
SK-MEL-2 = test system: SK-MEL-2
K562 = test system: K562
SK-MEL-5 = test system: SK-MEL-5
OVCAR-5 = test system: OVCAR-5
IGROV-1 = test system: IGROV-1
OVCAR-3 = test system: OVCAR-3
SNB-75 = test system: SNB-75
SR = test system: SR
MDA-MB-435 = test system: MDA-MB-435
OVCAR-4 = test system: OVCAR-4
UACC-257 = test system: UACC-257
ACHN = test system: ACHN
OVCAR-8 = test system: OVCAR-8
KM12 = test system: KM12
Malme-3M = test system: Malme-3M
UO-31 = test system: UO-31
RXF 393 = test system: RXF 393
RPMI-8226 = test system: RPMI-8226
MDA-MB-231 = test system: MDA-MB-231
UACC-62 = test system: UACC-62
HT-29 = test system: HT-29
HCT-116 = test system: HCT-116
MCF7 = test system: MCF7
NCI-H522 = test system: NCI-H522
T47D = test system: T47D
NCI-H460 = test system: NCI-H460
TK-10 = test system: TK-10
HL-60 = test system: HL-60
SN12C = test system: SN12C
HOP-92 = test system: HOP-92
BT-549 = test system: BT-549

## CN1CCC(OC(=O)Oc2ccccc2)(c2ccccc2)CC1
SF-268
  GI50: 37.1 µM (inactive)
NCI-H23
  GI50: 14.4 µM (inactive)
HCC 2998
  GI50: 19.6 µM (inactive)
A498
  GI50: 23.8 µM (inactive)
COLO 205
  GI50: 12.5 µM (inactive)
SK-OV-3
  GI50: 24.9 µM (inactive)
Hs-578T
  GI50: 28.5 µM (inactive)
MDA-N
  GI50: 17.6 µM (inactive)
SK-MEL-28
  GI50: 20.6 µM (inactive)
MOLT-4
  GI50: 13.1 µM (inactive)
786-0
  GI50: > 100 µM (inactive)
CAKI-1
  GI50: 77.3 µM (inactive)
HOP-62
  GI50: 15.5 µM (inactive)
CCRF-CEM
  GI50: 21.8 µM (inactive)
NCI-H226
  GI50: 22.7 µM (inactive)
SNB-19
  GI50: 25.4 µM (inactive)
M14
  GI50: 15 µM (inactive)
A549
  GI50: 38.2 µM (inactive)
PC-3
  GI50: 18 µM (inactive)
SW-620
  GI50: 25.7 µM (inactive)
U-251
  GI50: 21.9 µM (inactive)
SF-295
  GI50: 24 µM (inactive)
NCI/ADR-RES
  GI50: 16.6 µM (inactive)
DU-145
  GI50: 47.1 µM (inactive)
LOX IMVI
  GI50: 17.8 µM (inactive)
HCT-15
  GI50: 16.7 µM
SF-539
  GI50: 13.6 µM (inactive)
EKVX
  GI50: 45.8 µM (inactive)
SK-MEL-2
  GI50: 17.9 µM (inactive)
K562
  GI50: 24.7 µM (inactive)
SK-MEL-5
  GI50: 20 µM (inactive)
OVCAR-5
  GI50: 25.4 µM (inactive)
IGROV-1
  GI50: 21.1 µM (inactive)
OVCAR-3
  GI50: 61.5 µM (inactive)
SNB-75
  GI50: 24.4 µM (inactive)
SR
  GI50: 15.9 µM (inactive)
MDA-MB-435
  GI50: 17.3 µM (inactive)
OVCAR-4
  GI50: 18.3 µM (inactive)
UACC-257
  GI50: 19.7 µM (inactive)
ACHN
  GI50: 34.9 µM (inactive)
OVCAR-8
  GI50: 17.5 µM (inactive)
KM12
  GI50: 17.9 µM (inactive)
Malme-3M
  GI50: 17.7 µM (inactive)
UO-31
  GI50: 19.6 µM (inactive)
RXF 393
  GI50: 37.3 µM (inactive)
RPMI-8226
  GI50: 15.5 µM (inactive)
MDA-MB-231
  GI50: 12.9 µM (inactive)
UACC-62
  GI50: 21.5 µM (inactive)
HT-29
  GI50: 4.51 µM (inactive)
HCT-116
  GI50: 13 µM (inactive)
MCF7
  GI50: 20 µM (inactive)
NCI-H522
  GI50: 24 µM (inactive)
T47D
  GI50: 26.6 µM (inactive)
NCI-H460
  GI50: 13.5 µM (inactive)
TK-10
  GI50: 19.1 µM (inactive)
HL-60
  GI50: 16.5 µM (inactive)
SN12C
  GI50: 15.4 µM (inactive)

## Sc1cnnc2ccc(Br)cc12
SF-268
  GI50: 58.7 µM (inactive)
NCI-H23
  GI50: 28.8 µM (inactive)
HCC 2998
  GI50: 34.6 µM (inactive)
A498
  GI50: 53.3 µM (inactive)
COLO 205
  GI50: > 100 µM (inactive)
SK-OV-3
  GI50: > 100 µM (inactive)
Hs-578T
  GI50: 57.3 µM (inactive)
SK-MEL-28
  GI50: 40.4 µM (inactive)
MOLT-4
  GI50: 40.2 µM (inactive)
786-0
  GI50: > 100 µM (inactive)
CAKI-1
  GI50: 73.1 µM (inactive)
HOP-62
  GI50: > 100 µM (inactive)
CCRF-CEM
  GI50: 36.9 µM (inactive)
NCI-H226
  GI50: 49.3 µM (inactive)
SNB-19
  GI50: 74.3 µM (inactive)
M14
  GI50: 61 µM (inactive)
A549
  GI50: 36.1 µM (inactive)
SW-620
  GI50: > 100 µM (inactive)
U-251
  GI50: 38.7 µM (inactive)
SF-295
  GI50: 34 µM (inactive)
NCI/ADR-RES
  GI50: 48.6 µM (inactive)
DU-145
  GI50: 50.7 µM (inactive)
LOX IMVI
  GI50: 46 µM (inactive)
HCT-15
  GI50: 78.3 µM
SF-539
  GI50: 33 µM (inactive)
EKVX
  GI50: 22.5 µM (inactive)
SK-MEL-2
  GI50: 26.6 µM (inactive)
K562
  GI50: 37.8 µM (inactive)
SK-MEL-5
  GI50: 32.1 µM (inactive)
OVCAR-5
  GI50: > 100 µM (inactive)
IGROV-1
  GI50: 48.1 µM (inactive)
HOP-92
  GI50: 42.7 µM (inactive)
OVCAR-3
  GI50: 30.3 µM (inactive)
SNB-75
  GI50: > 100 µM (inactive)
SR
  GI50: 52 µM (inactive)
MDA-MB-435
  GI50: 27.4 µM (inactive)
OVCAR-4
  GI50: 35.9 µM (inactive)
UACC-257
  GI50: 29.4 µM (inactive)
ACHN
  GI50: 28.5 µM (inactive)
OVCAR-8
  GI50: 59.2 µM (inactive)
KM12
  GI50: 50.4 µM (inactive)
Malme-3M
  GI50: 24.7 µM (inactive)
UO-31
  GI50: 34.9 µM (inactive)
RXF 393
  GI50: 22.7 µM (inactive)
RPMI-8226
  GI50: 69 µM (inactive)
MDA-MB-231
  GI50: > 100 µM (inactive)
UACC-62
  GI50: 32.3 µM (inactive)
HT-29
  GI50: 26.4 µM (inactive)
HCT-116
  GI50: 86.1 µM (inactive)
MCF7
  GI50: 34.7 µM (inactive)
NCI-H522
  GI50: 28 µM (inactive)
T47D
  GI50: 51.9 µM (inactive)
NCI-H460
  GI50: 35.6 µM (inactive)
TK-10
  GI50: 38.6 µM (inactive)
HL-60
  GI50: 36.8 µM (inactive)
BT-549
  GI50: 37.3 µM (inactive)
SN12C
  GI50: 69.5 µM (inactive)

## CN(C)C(=O)C(F)(F)C(c1ccc(Br)cc1)C1C(=O)N(C)C(=O)N(C)C1=O (stereo unspecified)
SF-268
  GI50: > 100 µM (inactive)
NCI-H23
  GI50: > 100 µM (inactive)
HCC 2998
  GI50: > 100 µM (inactive)
A498
  GI50: > 100 µM (inactive)
COLO 205
  GI50: > 100 µM (inactive)
SK-OV-3
  GI50: > 100 µM (inactive)
SK-MEL-28
  GI50: > 100 µM (inactive)
786-0
  GI50: > 100 µM (inactive)
CAKI-1
  GI50: > 100 µM (inactive)
HOP-62
  GI50: > 100 µM (inactive)
CCRF-CEM
  GI50: > 100 µM (inactive)
NCI-H226
  GI50: > 100 µM (inactive)
SNB-19
  GI50: > 100 µM (inactive)
M14
  GI50: > 100 µM (inactive)
A549
  GI50: > 100 µM (inactive)
PC-3
  GI50: > 100 µM (inactive)
SW-620
  GI50: > 100 µM (inactive)
U-251
  GI50: > 100 µM (inactive)
SF-295
  GI50: > 100 µM (inactive)
NCI/ADR-RES
  GI50: > 100 µM (inactive)
DU-145
  GI50: > 100 µM (inactive)
LOX IMVI
  GI50: > 100 µM (inactive)
HCT-15
  GI50: > 100 µM
EKVX
  GI50: > 100 µM (inactive)
SK-MEL-2
  GI50: > 100 µM (inactive)
K562
  GI50: > 100 µM (inactive)
SK-MEL-5
  GI50: > 100 µM (inactive)
OVCAR-5
  GI50: > 100 µM (inactive)
HOP-92
  GI50: > 100 µM (inactive)
OVCAR-3
  GI50: > 100 µM (inactive)
SNB-75
  GI50: > 100 µM (inactive)
MDA-MB-435
  GI50: > 100 µM (inactive)
OVCAR-4
  GI50: > 100 µM (inactive)
UACC-257
  GI50: > 100 µM (inactive)
ACHN
  GI50: > 100 µM (inactive)
KM12
  GI50: > 100 µM (inactive)
UO-31
  GI50: > 100 µM (inactive)
RXF 393
  GI50: > 100 µM (inactive)
RPMI-8226
  GI50: > 100 µM (inactive)
MDA-MB-231
  GI50: > 100 µM (inactive)
UACC-62
  GI50: > 100 µM (inactive)
HCT-116
  GI50: > 100 µM (inactive)
MCF7
  GI50: > 100 µM (inactive)
T47D
  GI50: > 100 µM (inactive)
NCI-H460
  GI50: > 100 µM (inactive)
TK-10
  GI50: > 100 µM (inactive)
BT-549
  GI50: > 100 µM (inactive)
